# Key:
# Kentucky bluegrass = experiment: Turfgrass greening vs commercial greening products, Kentucky bluegrass, Table 32; assay type: in vivo
# Method: (§1) To further explain the positive greening response of Formulation 2, two additional trials were conducted on Kentucky bluegrass and perennial ryegrass. The additional trials compared Formulations 2 and 5 with other commercial greening products at equivalent nitrogen rates to better understand the speed of the greening response as well as the darkness of the greening response. Application rates are described in Table 31. The commercial greening products include Green Max™ Lawn Food and Turf Builder® Lawn Food available from the Scotts Company LLC (Marysville, OH). Urea was also evaluated.
# (§2) For each trial, preceding application, mowing was withheld for 24 to 48 hours to ensure sufficient leaf area was present for formulation absorption. The experimental unit for turfgrass color response testing was a 3′×3′ plot. The research area for turfgrass color response contained minimal weed pressure so that product impact could be accurately and consistently assessed. Plots were separated on each side by a 2 ft. untreated buffer strip.
# (§3) Formulations 2 and 5 were applied early in the morning to dew-laden turf. Green Max™ Lawn Food, Turf Builder® Lawn Food, and urea were all applied to dry turf once the morning dew had dissipated. All treatments were applied using a shaker jar and spreader box to ensure even particle coverage over the plot. Treatments applied to dry turf were watered in immediately after application with 0.18″ of water and wet-foliage applied treatments remained on the leaf surface for 24 hours prior to being watered in with 0.18″ of water. This trial design allowed for comparative evaluation of the response of turf to foliar nitrogen and iron compared to foliar nitrogen; soil applied nitrogen; and soil applied nitrogen and iron at two different rates of iron application. Turfgrass color was rated visually using the National Turfgrass Evaluation Program color rating scale (1-9). Treatments were rated for color 3 and 6 hours after application, and then 1, 3, 7, 14, and 20 days after application. Table 32 depicts testing of Kentucky bluegrass while Table 33 depicts testing of Perennial ryegrass.
# perennial ryegrass = experiment: Turfgrass greening vs commercial greening products, perennial ryegrass, Table 33; assay type: in vivo
# Method: as §1, §2, §3
smiles,measurement,setting,value
NC(N)=O [Urea],Turf Color (1-9),Kentucky bluegrass; 1 D after initial application,3.88
same,Turf Color (1-9),Kentucky bluegrass; 3 D after initial application,4.00
same,Turf Color (1-9),Kentucky bluegrass; 7 D after initial application,4.63
same,Turf Color (1-9),Kentucky bluegrass; 14 D after initial application,5.25
same,Turf Color (1-9),Kentucky bluegrass; 20 D after initial application,6.25
same,Turf Color (1-9),Kentucky bluegrass; 3 hr after initial application,3.75
same,Turf Color (1-9),Kentucky bluegrass; 6 hr after initial application,3.75
same,Turf Color (1-9),perennial ryegrass; 1 D after initial application,3.50
same,Turf Color (1-9),perennial ryegrass; 3 D after initial application,3.13
same,Turf Color (1-9),perennial ryegrass; 7 D after initial application,4.63
same,Turf Color (1-9),perennial ryegrass; 14 D after initial application,4.88
same,Turf Color (1-9),perennial ryegrass; 20 D after initial application,6.13
same,Turf Color (1-9),perennial ryegrass; 3 hr after initial application,3.13
same,Turf Color (1-9),perennial ryegrass; 6 hr after initial application,3.50

# — patent US12010993B2, “Granular agricultural compositions” (OMS Investments, Inc., priority 2020, dated 2024)
